Laboratory results from US20250163038A1, “CBL-B MODULATORS AND USES THEREOF” (Nimbus Clio, Inc., priority 2021, published 2025).

Assays:
[1] = target: T1, Recombinant human c-Cbl (aa 47-435) (Homo sapiens, UniProt P22681); test: c-Cbl Biochemical Assay (TR-FRET); conditions: hc-Cbl Biochemical Assay (TR-FRET); read-out: TR-FRET hcCbl IC50
T1 sequence (P22681 47-435): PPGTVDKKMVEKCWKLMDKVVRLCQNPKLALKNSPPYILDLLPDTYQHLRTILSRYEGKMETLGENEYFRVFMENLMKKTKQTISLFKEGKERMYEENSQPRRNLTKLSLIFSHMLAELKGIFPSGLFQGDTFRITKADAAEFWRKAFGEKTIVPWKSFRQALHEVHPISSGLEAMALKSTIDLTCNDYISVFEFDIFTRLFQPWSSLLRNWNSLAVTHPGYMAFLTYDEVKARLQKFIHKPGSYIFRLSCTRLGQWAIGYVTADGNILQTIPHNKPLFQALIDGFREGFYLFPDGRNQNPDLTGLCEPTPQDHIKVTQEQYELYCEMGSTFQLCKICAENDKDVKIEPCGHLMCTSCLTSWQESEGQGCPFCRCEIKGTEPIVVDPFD

[2] = target: Recombinant human Cbl-b (aa 36-427) (Homo sapiens, UniProt Q13191); test: Cbl-b Biochemical Assay (TR-FRET); conditions: read-out: TR-FRET hCbl-b IC50
[3] = system: Jurkat (clone E6-1) cells with NFAT luciferase reporter; test: Jurkat reporter assay (NFAT Luciferase); format: cell-based; conditions: Homo sapiens; Jurkat NFAT luciferase reporter cells, anti-CD3 stimulation, 6 hr; read-out: Jurkat NFAT EC50

Recombinant human Cbl-b (aa 36-427), sequence (Q13191 36-427): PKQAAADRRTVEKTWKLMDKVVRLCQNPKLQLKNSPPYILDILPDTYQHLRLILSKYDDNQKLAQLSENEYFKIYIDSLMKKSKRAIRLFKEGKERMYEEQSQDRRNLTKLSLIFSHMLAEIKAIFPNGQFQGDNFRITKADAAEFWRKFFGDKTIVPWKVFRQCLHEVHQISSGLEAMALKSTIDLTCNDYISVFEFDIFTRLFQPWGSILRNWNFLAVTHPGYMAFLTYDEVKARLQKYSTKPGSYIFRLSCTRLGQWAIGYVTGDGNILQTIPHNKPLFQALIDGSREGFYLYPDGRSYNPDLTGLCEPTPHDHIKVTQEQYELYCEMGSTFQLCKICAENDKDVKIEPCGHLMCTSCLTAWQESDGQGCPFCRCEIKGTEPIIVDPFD

SMILES	IC50 [1] [nM]	IC50 [2] [nM]	EC50 [3] [nM]
Cn1cnnc1-c1cc(F)ccc1-c1cccc(-c2nc3cc(CNCC4(O)COC4)cc(C(F)(F)F)c3[nH]2)c1 [BQ-1, 3-((((2-(4′-Fluoro-2′-(4-methyl-4H-1,2,4-triazol-3-yl)-[1,1′-biphenyl]-3-yl)-7-(trifluoromethyl)-1H-benzo[d]imidazol-5-yl)methyl)amino)methyl)oxetan-3-ol]	1000 to 10000	< 200	200 to 1000
Cn1cnnc1-c1cc(F)ccc1-c1cccc(-c2nc3cc(CN4CC(C)(O)C4)cc(C(F)(F)F)c3[nH]2)c1 [BR-1, 1-((2-(4′-Fluoro-2′-(4-methyl-4H-1,2,4-triazol-3-yl)-[1,1′-biphenyl]-3-yl)-7-(trifluoromethyl)-1H-benzo[d]imidazol-5-yl)methyl)-3-methylazetidin-3-ol]	1000 to 10000	< 200	1000 to 10000
Cn1cnnc1-c1cc(F)ccc1-c1cccc(-c2nc3cc(CNCC(C)(C)O)cc(C(F)(F)F)c3[nH]2)c1 [BT-1, 1-(((2-(4′-Fluoro-2′-(4-methyl-4H-1,2,4-triazol-3-yl)-[1,1′-biphenyl]-3-yl)-7-(trifluoromethyl)-1H-benzo[d]imidazol-5-yl)methyl)amino)-2-methylpropan-2-ol]	1000 to 10000	< 200	200 to 1000
Cn1cnnc1-c1cc(F)ccc1-c1cccc(-c2nc3cc(CN4CCC5(CC4)CC5)cc(C(F)(F)F)c3[nH]2)c1 [BU-1, 5-((6-Azaspiro[2.5]octan-6-yl)methyl)-2-(4′-fluoro-2′-(4-methyl-4H-1,2,4-triazol-3-yl)-[1,1′-biphenyl]-3-yl)-7-(trifluoromethyl)-1H-benzo[d]imidazole]	1000 to 10000	< 200	200 to 1000
Cn1cnnc1-c1cc(F)ccc1-c1cccc(-c2nc3cc(CNCC4(O)CC4)cc(C(F)(F)F)c3[nH]2)c1 [BV-1, 1-((((2-(4′-Fluoro-2′-(4-methyl-4H-1,2,4-triazol-3-yl)-[1,1′-biphenyl]-3-yl)-7-(trifluoromethyl)-1H-benzo[d]imidazol-5-yl)methyl)amino)methyl)cyclopropan-1-ol]	1000 to 10000	< 200	200 to 1000
Cn1cnnc1-c1cc(F)ccc1-c1cccc(-c2nc3cc(CN[C@@H]4CCC[C@@H]4O)ccc3[nH]2)c1 [BY-1, (1S,2R)-2-(((2-(4′-Fluoro-2′-(4-methyl-4H-1,2,4-triazol-3-yl)-[1,1′-biphenyl]-3-yl)-1H-benzo[d]imidazol-5-yl)methyl)amino)cyclopentan-1-ol]	1000 to 10000	< 200	1000 to 10000
CN1CCC[C@H](NCc2cc(C(F)(F)F)c3[nH]c(-c4cccc(-c5ccc(F)cc5-c5nncn5C)c4)nc3c2)C1=O [CC-2, (S)-3-(((2-(4′-Fluoro-2′-(4-methyl-4H-1,2,4-triazol-3-yl)-[1,1′-biphenyl]-3-yl)-7-(trifluoromethyl)-1H-benzo[d]imidazol-5-yl)methyl)amino)-1-methylpiperidin-2-one, formic Acid]	1000 to 10000	< 200	1000 to 10000
Cn1cnnc1-c1cc(F)ccc1-c1cccc(-c2nc3cc(CNCC(C)(C)F)cc(C(F)(F)F)c3[nH]2)c1 [CD-2, 2-Fluoro-N-((2-(4′-fluoro-2′-(4-methyl-4H-1,2,4-triazol-3-yl)-[1,1′-biphenyl]-3-yl)-7-(trifluoromethyl)-1H-benzo[d]imidazol-5-yl)methyl)-2-methylpropan-1-amine, Formic Acid]	1000 to 10000	< 200	200 to 1000
Cn1cnnc1-c1cc(F)ccc1-c1cccc(-c2nc3cc(CNCC4(O)CCCC4)cc(C(F)(F)F)c3[nH]2)c1 [CJ-1, 1-((((2-(4′-Fluoro-2′-(4-methyl-4H-1,2,4-triazol-3-yl)-[1,1′-biphenyl]-3-yl)-7-(trifluoromethyl)-1H-benzo[d]imidazol-5-yl)methyl)amino)methyl)cyclopentan-1-ol]	< 200	< 200	< 200
